Assay results reported in patent US8153687B2, “Gallium complexes with polyalcohols and methods of use” (priority 2009, dated 2012).

Test system: Pseudomonas aeruginosa
Test: Topical treatment of a recalcitrant Pseudomonas aeruginosa infected diabetic foot ulcer (case)
Format: in vivo
Conditions: severe diabetic foot ulcer with biofilm formation

| Molecule | response of the infection to treatment (oral treatment) | response of the infection to treatment (topical treatment) |
| --- | --- | --- |
| O=C(O)c1cn(C2CC2)c2cc(N3CCNCC3)c(F)cc2c1=O [ciprofloxacin] | does not respond | does not respond |
| Oc1cc(Cl)ccc1Oc1ccc(Cl)cc1Cl [triclosan] | – | does not respond |
| gentamicin | – | does not respond |
